Experimental data published in PubChem BioAssay (NCI).
Where “and” joins values, the source holds several entries; their conditions need not be identical. Equal entries are not always repeated.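 Method: 48-hour compound exposure of cells in 96-well plates, five concentrations, linear interpolation of endpoints. GI50 marks 50% less growth. TGI: total growth inhibition.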

How the values were obtained:
Assay in all cases: growth of human tumour cells (NCI), 48 h
OVCAR-4 ovarian = test system: OVCAR-4 ovarian
MOLT-4 leukemia = test system: MOLT-4 leukemia
SK-OV-3 ovarian = test system: SK-OV-3 ovarian
KM12 colon = test system: KM12 colon
MALME-3M melanoma = test system: MALME-3M melanoma
U251 CNS = test system: U251 CNS
HCC-2998 colon = test system: HCC-2998 colon
CAKI-1 renal = test system: CAKI-1 renal
TK-10 renal = test system: TK-10 renal
MDA-MB-435 = test system: MDA-MB-435

SMILES | TGI (OVCAR-4 ovarian) | TGI (MOLT-4 leukemia) | TGI (SK-OV-3 ovarian) | TGI (KM12 colon) | TGI (MALME-3M melanoma) | TGI (U251 CNS) | TGI (HCC-2998 colon) | TGI (CAKI-1 renal) | TGI (TK-10 renal) | GI50 (OVCAR-4 ovarian) | GI50 (MOLT-4 leukemia) | GI50 (SK-OV-3 ovarian) | GI50 (KM12 colon) | GI50 (U251 CNS) | GI50 (HCC-2998 colon) | GI50 (CAKI-1 renal) | GI50 (TK-10 renal) | GI50 (MDA-MB-435) | TGI (MDA-MB-435) | GI50 (MALME-3M melanoma)
Cc1nnc2n1N=C(c1ccccc1)C(c1ccccc1)S2 (stereo not given) | > 100 µM | > 100 µM | 68.2 µM | > 100 µM | > 100 µM | 72 µM | > 100 µM | > 100 µM | > 100 µM | – | – | – | – | – | – | – | – | – | – | –
COC(=O)C1CC(c2ccc(OC)c(OC)c2)OC1=O (mixture of isomers) | > 100 µM | > 100 µM | > 100 µM | > 100 µM | > 100 µM | > 100 µM | > 100 µM | > 100 µM | > 100 µM | – | – | – | – | – | – | – | – | – | – | –
COc1cc(N2C(=O)[C@H](Cl)C2c2ccc(SC)cc2)cc(OC)c1OC (stereo not given in full) | > 100 µM | > 100 µM | > 100 µM | 20.3 µM | – | > 100 µM | > 100 µM | > 100 µM | > 100 µM | 0.0647 µM | 0.284 µM | 0.588 µM | 0.0473 µM | 0.124 µM | 0.235 µM | 0.0484 µM | 1.94 µM | – | – | –
COC1(OC)C2(Cl)C3=CCCC=C3C1(Cl)C(Cl)=C2Cl | > 100 µM | 76.9 µM | 72.6 µM | > 100 µM | 49.2 µM | 82.1 µM | > 100 µM | 84.2 µM | > 100 µM | – | – | – | – | – | – | – | – | – | – | –
Cc1cc(Cl)ccc1NC(=O)CCCC(=O)C1C/C(=N/O)CC/C1=N\O (stereo not given) | > 100 µM | > 100 µM | > 100 µM | > 100 µM | > 100 µM | > 100 µM | > 100 µM | > 100 µM | > 100 µM | – | – | – | – | – | – | – | – | – | – | –
CN(C)CCC(=O)Nc1ccc(-n2cc(-c3cccc(NC(=S)Nc4cccc(-c5cn(-c6ccc(NC(=O)CCN(C)C)cc6)nn5)c4)c3)nn2)cc1 | > 100 µM | 84.6 µM | > 100 µM | 34 µM | – | 80.8 µM | > 100 µM | > 100 µM | > 100 µM | 35.4 µM | 20.7 µM | > 100 µM | 10.7 µM | 21.4 µM | > 100 µM | > 100 µM | 83.7 µM | 26.7 µM | > 100 µM | –
Cn1c(=O)oc2cc(C3CCC(=O)N3Cc3csc(-c4ccccc4)n3)ccc21 (stereo not given) | > 100 µM | > 100 µM | > 100 µM | > 100 µM | > 100 µM | > 100 µM | > 100 µM | > 100 µM | > 100 µM | – | – | – | – | – | – | – | – | – | – | –
Cc1cc(=O)[nH]c(NNC(C#N)c2cccc([N+](=O)[O-])c2)n1 (stereo not given) | > 100 µM | > 100 µM | > 100 µM | > 100 µM | > 100 µM | > 100 µM | – | > 100 µM | > 100 µM | – | – | – | – | – | – | – | – | – | – | –
CC(=O)[CH-]C(C)=O.CC(=O)[CH-]C(C)=O.[O-]c1ccccc1.[O-]c1ccccc1.[Ti+4] | > 100 µM | > 100 µM | > 100 µM | > 100 µM | > 100 µM | > 100 µM | > 100 µM | > 100 µM | > 100 µM | > 100 µM | > 100 µM | > 100 µM | > 100 µM | > 100 µM | > 100 µM | > 100 µM | > 100 µM | – | – | > 100 µM
CC1CCC2C(C)C(=O)OC2C2(C)C(=O)C=CC12 (stereo not given) | > 10 µM | > 10 µM | > 10 µM | > 10 µM | – | > 10 µM | > 10 µM | > 10 µM | > 10 µM | – | – | – | – | – | – | – | – | – | > 10 µM | –
OCC(O)C(O)C(O)C(/C=N\Nc1ncnc2c(Br)cc(Br)cc12)=N/Nc1ncnc2c(Br)cc(Br)cc12 (stereo not given) | – | 34.3 µM and > 100 µM | 10 µM and > 100 µM | 70.8 µM and > 100 µM | 14.4 µM and > 100 µM | – | – | 26.7 µM and > 100 µM | 28.1 µM and > 100 µM | – | 4.91 µM and 2.37 µM | – | – | – | – | – | – | 5.24 µM and 12.6 µM | 21.7 µM and > 100 µM | –
Cc1cccc(N2C(=O)/C(=C/C(Cl)=C/c3ccc([N+](=O)[O-])cc3)SC2=S)c1C | > 100 µM | > 100 µM | > 100 µM | – | – | 5.94 µM | 3.54 µM | – | > 100 µM | 1.46 µM | 1.02 µM | 4.93 µM | – | 1.95 µM | 1.72 µM | – | 3.17 µM | – | – | –
CCCCCCCC/C=C/CCCCCCCC1=NC(C)(C)CN1C(C)(C)CO | 4.4 µM | 5.81 µM | 29.3 µM | 3.45 µM | – | – | 3.04 µM | 2.88 µM | 7.46 µM | 2.12 µM | 2.62 µM | 14.4 µM | 1.97 µM | – | 1.65 µM | 1.39 µM | 2.61 µM | 1.72 µM | 3.26 µM | –
Cc1ccc(C2=CC(=O)c3ccccc3C2=O)n1-c1ccccc1 | 96.6 µM | 98.5 µM | > 100 µM | > 100 µM | – | > 100 µM | > 100 µM | – | > 100 µM | – | – | – | – | – | – | – | – | – | – | –
O=c1[nH]ccc(CNC23CC4CC(CC(C4)C2)C3)c1O | > 100 µM | > 100 µM | > 100 µM | > 100 µM | > 100 µM | > 100 µM | > 100 µM | > 100 µM | > 100 µM | – | – | – | – | – | – | – | – | – | – | –
CN1CCCC2[C@@H]3CCC4c5nonc5CC[C@]4(C)C3CC[C@@]21C (stereo not given in full) | > 100 µM | > 100 µM | > 100 µM | > 100 µM | > 100 µM | > 100 µM | – | > 100 µM | > 100 µM | – | – | – | – | – | – | – | – | – | – | –
c1cnc2c(c1)-n1cccc1C1(CCCCC1)NN2 | > 100 µM | > 100 µM | – | > 100 µM | > 100 µM | – | > 100 µM | > 100 µM | > 100 µM | – | – | – | – | – | – | – | – | – | – | –
O=c1c2cccnc2ncn1CCCN1CCCCC1 | > 100 µM | > 100 µM | > 100 µM | > 100 µM | > 100 µM | > 100 µM | – | > 100 µM | > 100 µM | – | – | – | – | – | – | – | – | – | – | –
C/C(=N/NC(=S)Nc1ccccc1)c1nc2ccc(Cl)cc2[nH]1 | 2.42 µM | 1.1 µM | 1.39 µM | 0.826 µM | 0.401 µM | 1.02 µM | 0.725 µM | – | 2.61 µM | 0.0466 µM | 0.086 µM | 0.246 µM | 0.14 µM | 0.0996 µM | 0.135 µM | – | 0.539 µM | – | – | 0.0737 µM
O=c1c(Cc2ccccc2)c(O)cc2n1CCC2 | > 100 µM | > 100 µM | > 100 µM | > 100 µM | > 100 µM | > 100 µM | > 100 µM | > 100 µM | > 100 µM | – | – | – | – | – | – | – | – | – | – | –
